# Experimental data from patent publication US5536729A, “Rapamycin formulations for oral administration” (priority 1994, dated 1996).
# What was measured:
# [1] = test system: transplant rejection; conditions: useful in preventing transplant rejection; cited from earlier work
# [2] = test system: thymocyte; conditions: in vitro; cited from earlier work
# [3] = test system: smooth muscle cell proliferation and intimal thickening; conditions: following vascular injury; Morris 1992; cited from earlier work
# [4] = test system: Microsporum gypseum; conditions: cited from earlier work
# [5] = test system: tumor; conditions: in vivo; cited from earlier work
# [6] = test system: insulin dependent diabetes mellitus; conditions: Fifth Int. Conf. Inflamm. Res. Assoc. 1990; cited from earlier work
# [7] = test system: systemic lupus erythematosus; conditions: U.S. Pat. No. 5,078,999; cited from earlier work
# [8] = test system: pulmonary inflammation; conditions: U.S. Pat. No. 5,080,899; cited from earlier work
# [9] = test system: IgE-like antibodies; conditions: Martel 1977; cited from earlier work
# [10] = test system: Candida albicans; conditions: cited from earlier work
# [11] = test system: rejection in vivo in allograft transplantation; conditions: Calne 1989; Morris and Meiser 1989; cited from earlier work
# [12] = test system: adjuvant arthritis; conditions: model for rheumatoid arthritis; Martel 1977; cited from earlier work
# [13] = test system: experimental allergic encephalomyelitis; conditions: model for multiple sclerosis; Martel 1977; cited from earlier work
# [14] = cited from earlier work
# [15] = set-up: species or system Cynomolgus monkeys; conditions: cynomolgus monkey, in vivo, po, 50 mg/kg
# Procedure: Cynomolgus monkeys were administered the formulation above at a dose of 0.25 mg/kg of rapamycin and the following serum concentrations were determined at the indicated time after dosing.
# Cynomolgus monkeys were administered the above formulation at a dose of 50 mg/kg of rapamycin and the following serum concentrations were determined at the indicated time after dosing.
# Cynomolgus monkeys were administered this second comparative formulation at a dose of 50 mg/kg of rapamycin and the following serum concentrations were determined at the indicated time after dosing.
SMILES,immunosuppressive effect [1],thymocyte proliferation [2],preventing or treating smooth muscle cell proliferation and intimal thickening [3],effect on growth of fungi [4],antitumor activity [5],preventing or treating insulin dependent diabetes mellitus [6],preventing or treating systemic lupus erythematosus [7],preventing or treating pulmonary inflammation [8],formation of IgE-like antibodies [9],effect on growth of fungi [10],inhibiting rejection in vivo in allograft transplantation [11],efficacy in adjuvant arthritis model [12],efficacy in experimental allergic encephalomyelitis model [13],activity in vivo [14],Rapamycin Concentration in Monkey Serum [15]
C=CC[C@@H]1/C=C(\C)C[C@H](C)C[C@H](OC)[C@H]2O[C@@](O)(C(=O)C(=O)N3CCCC[C@H]3C(=O)O[C@H](/C(C)=C/[C@@H]3CC[C@@H](O)[C@H](OC)C3)[C@H](C)[C@@H](O)CC1=O)[C@H](C)C[C@@H]2OC [FK-506],effective as immunosuppressive agents,–,–,–,–,–,–,–,–,–,–,–,–,–,–
"CO[C@H]1C[C@@H]2CC[C@@H](C)[C@@](O)(O2)C(=O)C(=O)N2CCCC[C@H]2C(=O)O[C@H]([C@H](C)C[C@@H]2CC[C@@H](O)[C@H](OC)C2)CC(=O)[C@H](C)/C=C(\C)[C@@H](O)[C@@H](OC)C(=O)[C@H](C)C[C@H](C)/C=C/C=C/C=C/1C [Rapamycin, rapamycin]",immunosuppressive effects,inhibit thymocyte proliferation in vitro,useful in preventing or treating,adversely affects the growth of fungi,antitumor activity,useful in preventing or treating,useful in preventing or treating,useful in preventing or treating,effectively inhibited,adversely affects the growth of fungi,effectiveness of rapamycin in inhibiting rejection in vivo in allograft transplantation,effective,effective,"immunosuppressive, antifungal and antiinflammatory activity in vivo",–
CO[C@H]1C[C@@H]2CC[C@@H](C)[C@@](O)(O2)C(=O)C(=O)N2CCCC[C@H]2C(=O)O[C@H]([C@H](C)C[C@@H]2CC[C@@H](O)[C@H](OC)C2)CC(=O)[C@H](C)/C=C(\C)[C@@H](O)[C@@H](OC)C(=O)[C@H](C)C[C@H](C)/C=C/C=C/C=C/1C [Comparative Example 2],–,–,–,–,–,–,–,–,–,–,–,–,–,–,BDL (key: BDL: Below detection limit (detection limit = 0.006 μg/ml))
